Common to all, as to type: functional, cell-based
The target in assay [1] is Cannabinoid receptor 1 (Rattus norvegicus) (UniProt P20272). The assay is described as follows: Agonist activity at rat CB1 receptor stably expressed in HEK293 cells assessed as inhibition of forskolin-stimulated cAMP accumulation incubated for 5 mins by Lance Ultra cAMP assay relative to control. Particulars: filed as agonist.
For another assay, the target named is Cannabinoid receptor 2 (Mus musculus, UniProt P47936). The assay is described as follows: Agonist activity at mouse CB2 receptor stably expressed in HEK293 cells assessed as inhibition of forskolin-stimulated cAMP accumulation incubated for 5 mins by Lance Ultra cAMP assay. Background: cAMP levels reflect the balance of adenylyl cyclase and phosphodiesterase activity.
Sequence of Cannabinoid receptor 2 (P47936 whole entry): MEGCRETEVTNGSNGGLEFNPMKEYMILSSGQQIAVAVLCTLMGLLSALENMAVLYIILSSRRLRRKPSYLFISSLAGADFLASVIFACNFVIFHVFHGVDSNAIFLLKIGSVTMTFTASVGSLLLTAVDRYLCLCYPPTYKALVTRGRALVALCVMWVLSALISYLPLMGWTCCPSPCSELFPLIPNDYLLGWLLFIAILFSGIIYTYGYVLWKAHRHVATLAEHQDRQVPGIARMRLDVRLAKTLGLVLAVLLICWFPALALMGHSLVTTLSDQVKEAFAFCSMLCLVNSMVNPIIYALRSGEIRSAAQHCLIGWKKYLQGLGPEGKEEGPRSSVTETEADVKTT

Assay [2] concerns the target Cannabinoid receptor 2 (Mus musculus) (UniProt P47936). The assay is described as follows: Agonist activity at mouse CB2 receptor stably expressed in HEK293 cells assessed as inhibition of forskolin-stimulated cAMP accumulation incubated for 5 mins by Lance Ultra cAMP assay relative to control.
In a further assay the target is Cannabinoid receptor 1 (Rattus norvegicus, UniProt P20272). The experiment in a line: Agonist activity at rat CB1 receptor stably expressed in HEK293 cells assessed as inhibition of forskolin-stimulated cAMP accumulation incubated for 5 mins by Lance Ultra cAMP assay.
Sequence of Cannabinoid receptor 1 (P20272 whole entry): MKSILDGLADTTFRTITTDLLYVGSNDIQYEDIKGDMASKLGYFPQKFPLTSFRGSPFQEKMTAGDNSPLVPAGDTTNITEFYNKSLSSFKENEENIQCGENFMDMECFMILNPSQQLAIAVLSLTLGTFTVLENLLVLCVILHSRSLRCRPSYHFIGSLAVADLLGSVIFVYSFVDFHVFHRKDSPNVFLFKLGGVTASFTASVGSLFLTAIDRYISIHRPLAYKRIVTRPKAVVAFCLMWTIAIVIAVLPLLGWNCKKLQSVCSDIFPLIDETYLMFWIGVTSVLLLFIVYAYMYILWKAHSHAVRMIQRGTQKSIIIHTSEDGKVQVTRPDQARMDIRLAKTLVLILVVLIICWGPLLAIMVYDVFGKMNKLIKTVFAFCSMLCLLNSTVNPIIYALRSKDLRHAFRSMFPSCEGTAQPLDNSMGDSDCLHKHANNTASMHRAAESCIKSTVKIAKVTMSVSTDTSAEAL

By Emax is commonly meant the maximal effect, on the per cent scale that the assay sets. The term EC50 denotes the concentration that produces a half-maximal response.

Sequence of Cannabinoid receptor 2 (Mus musculus) (P47936 whole entry): as the sequence (P47936 whole entry) above
Sequence of Cannabinoid receptor 1 (Rattus norvegicus) (P20272 whole entry): as the sequence (P20272 whole entry) above

Turning to `CCCCC/C=C\C/C=C\C/C=C\C/C=C\CCCC(=O)OC(CO)CO` [2-ARACHIDONOYLGLYCEROL], the values for the maximal effect (Emax) in assay [1] and in assay [2] were 47.7% and 35.2%, respectively. The EC50 on Cannabinoid receptor 2 was 18 nM.

Consider `CCCCC/C=C\C/C=C\C/C=C\[C@H](C)/C=C\CCCC(=O)OC(CO)CO`, for which the Emax is 48.7% in assay [1] and 24.6% in assay [2]. Further, the EC50 at Cannabinoid receptor 1 stood at 23.1 nM; on Cannabinoid receptor 2, 6 nM.

In the case of `CCCCCCC(C)(C)c1ccc([C@@H]2C[C@H](O)CC[C@H]2CCCO)c(O)c1` [CP-55940], the Emax is 67.1% in assay [1] and 54.4% in assay [2] (filed as agonist). In addition, at Cannabinoid receptor 2, the half-maximal effective concentration (EC50) is 7 nM.

As for `CCCCC/C=C\[C@@H](C)/C=C\C/C=C\C/C=C\CCCC(=O)OC(CO)CO`, the values for the Emax in assay [1] and in assay [2] (filed as agonist) were 51.6% and 42.8%, respectively. Besides, the results for the EC50 on Cannabinoid receptor 1 and at Cannabinoid receptor 2 were 7 nM and 50 nM, respectively.

With `CCCCC/C=C\C/C=C\C/C=C\[C@@H](C)/C=C\CCCC(=O)OC(CO)CO`, the Emax was 74.8% in assay [1] and under 1% in assay [2]. Further, at Cannabinoid receptor 1, the EC50 amounted to 34.6 nM.

Turning to `CCCCC/C=C\[C@H](C)/C=C\C/C=C\C/C=C\CCCC(=O)OC(CO)CO`, the values for the Emax in assay [1] and in assay [2] (filed as agonist) were 51.2% and 50.1%, respectively. Further, the concentration for a half-maximal effect (EC50) at Cannabinoid receptor 1 stood at 17 nM; at Cannabinoid receptor 2, 53 nM.

The values are drawn from ChEMBL document CHEMBL5532738, “Chiral Me-2-arachidonoyl Glycerols: The First Potent Endocannabinoid Glyceride Templates with Stability to COX-2” (ACS Med Chem Lett, 2024).
